# According to patent publication US20210322509A1, “Methods for Reducing Perinatal Morbidity and / or Mortality” (CHU SAINTE-JUSTINE, priority 2016, published 2021):
# Marks after values point to notes of the source that are not given here. Non-standard residues stand in square brackets, D forms with d. Residues, ends and D or L forms follow the SMILES beside them. ξ: configuration not given here. dThr(3ξ) = CC(O)[C@@H](N)C(=O)O
# Key:
# [1] = system: pups from IL-1β-treated dams; experiment: Behavioral test (spontaneous open field activity); assay type: in vivo, mice; conditions: PT15
# Protocol: Behavioral test (Spontaneous openfield activity). Each animal (PND15 and PND28) was gently placed in the center of the openfield, allowed to freely explore undisturbed for 10 min, after which the animal was removed, the arena cleaned with 70% ethanol and dried prior to testing the next animal. Locomotor activity was indexed as the total distance travelled (cm). The evaluator was blinded to the groups. All movements were monitored and quantified using Smart software.
# [2] = system: progeny of C57Bl/6 dams given LPS and/or compound 2; experiment: Offspring growth trajectory and body morphometry at 20 weeks after exposure in utero; assay type: in vivo, C57Bl/6 mice; conditions: for Adrenals L / Adrenals R / Biceps / Brain / Combined Muscle / Gastrocnemius / Heart / Kidneys L / Kidneys R / Lean body weight / Liver / Lungs / Muscle:fat ratio / Ovary L / Ovary R / Parametrial Fat / Peri-renal Fat / Quadriceps / Retroperitoneal Fat / Spleen / Thymus / Total Central Fat / Triceps / Uterus / Epididymal Fat / Epididymis (L + R) / Seminal Vesicle / Testes L / Testes R: mean ± SEM
# Protocol: FIGS. 12A and 12B show the effect of exposure to compound 2 in utero on growth trajectory in offspring. Pregnant females were given either LPS or PBS control i.p. on gd 16.5, then compound 2 or PBS vehicle i.p. at 12 h intervals on gd 16.5, 17.0, 17.5 and 18.0. Growth trajectories of male (FIG. 12A) and female (FIG. 12B) progeny of mothers receiving LPS and/or compound 2 are shown as estimated marginal means±SEM, of n=20 male and n=20 female offspring in each group; *P<0.05). Data was analyzed by a Mixed Model Linear Repeated Measures ANOVA and post-hoc Sidak test.
# Animal and treatments. To analyze effects of compound 2 on offspring development into adulthood, pups delivered in the experiment described in Example 5 were weighed at 21 days, when pups were weaned and housed in groups of 1-4 siblings according to sex. All progeny were weighed again at 4 weeks and then every 2 weeks until 20 weeks of age. At 20 weeks, progeny were killed by cervical dislocation, weighed and autopsied for full body composition analysis. The following tissues were excised and weighed individually; brain, heart, lungs (left and right), kidneys (left and right), liver, adrenal glands (left and right), thymus, spleen, testes (males, left and right), seminal vesicle (males), epididymis (males), ovaries (females, left and right), uterus (females), quadriceps (left and right), triceps (left and right), biceps (left and right), gastrocnemius muscle (left and right), retroperitoneal fat, peri-renal fat, epididymal fat (males, left and right) and parametrial fat (females). Weights of bilateral tissues and organs were combined for each mouse. Total muscle weight was calculated by summing the weights of quadriceps, triceps, and biceps and gastrocnemius muscles. Total fat weight was calculated by summing the weights of retroperitoneal fat, peri-renal fat and epididymal fat (for males) or parametrial fat (for females), and the muscle/fat ratio was determined. Total fat weight was subtracted from total body weight to calculate total lean weight.
# [3] = system: pregnant C57Bl/6 mice given LPS; experiment: Perinatal outcomes after maternal LPS (gestation length, perinatal survival, birth weight); assay type: in vivo
# Protocol: The timing of birth (FIG. 11A); the number of viable pups per litter at birth (FIG. 11B); the proportion of pups surviving to one week (FIG. 11C), and birth weight at 12-24 h (FIG. 11D) were recorded (all mean±SEM). The number of treated dams in each group is shown in parentheses (n=10 per group, with n=48-57 pups weighed per group at birth) and data were analysed by ANOVA and post-hoc Sidak t-test; *P<0.05.
# Animal and treatments. […] Mice were monitored via video recording until the time of parturition. Gestation length and perinatal survival (number of live pups at birth and % pups surviving to one week) were recorded. Pups were weighed at 12-24 h after birth.
# [4] = 20 week old adult female progeny, LPS + compound 2 in utero
# [5] = 20 week old adult female progeny, PBS + compound 2 in utero
# [6] = 20 week old adult male progeny, LPS + compound 2 in utero
# [7] = 20 week old adult male progeny, PBS + compound 2 in utero
# [8] = LPS gd 16.5 + compound 2 1 mg/kg i.p. at 12 h intervals, 4 doses
compound,measurement,setting,value
CC(C)C[C@@H](NC(=O)[C@@H](CCC(=O)O)NC(=O)[C@H](NC(=O)[C@H](NC(=O)[C@@H](Cc1ccc(O)cc1)NC(=O)[C@H](N)CCCNC(=N)N)C(C)O)C(C)C)C(=O)N[C@H](C)C(N)=O (stereo partly drawn) [compound 1] (H-[dR][dY][dThr(3ξ)][dV][dE][dL][dA]-NH2),"behavior/locomotion activity (distance travelled, open field)",[1],normalization of the behavior/locomotion activity
CC(C)C[C@@H](NC(=O)[C@@H](CCC(=O)O)NC(=O)[C@H](NC(=O)[C@H](NC(=O)[C@@H](Cc1ccc(O)cc1)NC(=O)[C@H](N)CCCNC(=N)N)C(C)O)C(C)C)C(=O)N[C@H](C)C(=O)O (stereo partly drawn) [compound 2] (H-[dR][dY][dThr(3ξ)][dV][dE][dL][dA]-OH),Adrenals L,[2]; [4],4 ± 0 mg
same,Adrenals R,[2]; [4],4 ± 0 mg
same,Biceps,[2]; [4],48 ± 3 mg
same,Brain,[2]; [4],408 ± 9 mg
same,Combined Muscle,[2]; [4],673 ± 25 mg
same,Gastrocnemius,[2]; [4],207 ± 8 mg
same,Heart,[2]; [4],105 ± 4 mg
same,Kidneys L,[2]; [4],120 ± 5 mg
same,Kidneys R,[2]; [4],127 ± 6 mg
same,Lean body weight,[2]; [4],19.44 g
same,Liver,[2]; [4],955 ± 38 mg
same,Lungs,[2]; [4],165 ± 10 mg
same,Muscle:fat ratio,[2]; [4],1.23 ± 0.06
same,Ovary L,[2]; [4],13 ± 2 mg
same,Ovary R,[2]; [4],13 ± 1 mg
same,Parametrial Fat,[2]; [4],180 ± 20 mg
same,Peri-renal Fat,[2]; [4],66 ± 7 mg
same,Quadriceps,[2]; [4],254 ± 13 mg
same,Retroperitoneal Fat,[2]; [4],317 ± 18 mg
same,Spleen,[2]; [4],86 ± 7 mg
same,Thymus,[2]; [4],70 ± 5 mg
same,Total Central Fat,[2]; [4],562 ± 41 mg
same,Triceps,[2]; [4],165 ± 7 mg
same,Uterus,[2]; [4],66 ± 8 mg
same,Adrenals L,[2]; [5],4 ± 0 mg
same,Adrenals R,[2]; [5],4 ± 0 mg
same,Biceps,[2]; [5],51 ± 3 mg
same,Brain,[2]; [5],406 ± 9 mg
same,Combined Muscle,[2]; [5],690 ± 24 mg
same,Gastrocnemius,[2]; [5],215 ± 8 mg
same,Heart,[2]; [5],109 ± 3 mg
same,Kidneys L,[2]; [5],112 ± 5 mg
same,Kidneys R,[2]; [5],122 ± 6 mg
same,Lean body weight,[2]; [5],19.85 g
same,Liver,[2]; [5],945 ± 37 mg
same,Lungs,[2]; [5],174 ± 11 mg
same,Muscle:fat ratio,[2]; [5],1.18 ± 0.06
same,Ovary L,[2]; [5],16 ± 2 mg
same,Ovary R,[2]; [5],16 ± 1 mg
same,Parametrial Fat,[2]; [5],192 ± 20 mg
same,Peri-renal Fat,[2]; [5],71 ± 7 mg
same,Quadriceps,[2]; [5],254 ± 12 mg
same,Retroperitoneal Fat,[2]; [5],326 ± 18 mg
same,Spleen,[2]; [5],93 ± 7 mg
same,Thymus,[2]; [5],64 ± 5 mg
same,Total Central Fat,[2]; [5],589 ± 40 mg
same,Triceps,[2]; [5],170 ± 7 mg
same,Uterus,[2]; [5],63 ± 7 mg
same,Adrenals L,[2]; [6],4 ± 0 mg
same,Adrenals R,[2]; [6],3 ± 1 mg
same,Biceps,[2]; [6],58 ± 3 mg
same,Brain,[2]; [6],413 ± 5 mg
same,Combined Muscle,[2]; [6],848 ± 18 mg
same,Epididymal Fat,[2]; [6],224 ± 16 mg
same,Epididymis (L + R),[2]; [6],102 ± 3* mg
same,Gastrocnemius,[2]; [6],260 ± 7 mg
same,Heart,[2]; [6],128 ± 3 mg
same,Kidneys L,[2]; [6],149 ± 5 mg
same,Kidneys R,[2]; [6],159 ± 5 mg
same,Lean body weight,[2]; [6],23.04 g
same,Liver,[2]; [6],1097 ± 40 mg
same,Lungs,[2]; [6],173 ± 4 mg
same,Muscle:fat ratio,[2]; [6],1.39
same,Peri-renal Fat,[2]; [6],65 ± 6 mg
same,Quadriceps,[2]; [6],313 ± 8 mg
same,Retroperitoneal Fat,[2]; [6],334 ± 26 mg
same,Seminal Vesicle,[2]; [6],218 ± 9 mg
same,Testes L,[2]; [6],84 ± 3 mg
same,Testes R,[2]; [6],85 ± 3 mg
same,Total Central Fat,[2]; [6],625 ± 37 mg
same,Triceps,[2]; [6],217 ± 6 mg
same,Adrenals L,[2]; [7],5 ± 0 mg
same,Adrenals R,[2]; [7],6 ± 2 mg
same,Biceps,[2]; [7],67 ± 4 mg
same,Brain,[2]; [7],404 ± 7 mg
same,Combined Muscle,[2]; [7],840 ± 23 mg
same,Epididymal Fat,[2]; [7],244 ± 20 mg
same,Epididymis (L + R),[2]; [7],112 ± 4 mg
same,Gastrocnemius,[2]; [7],241 ± 9 mg
same,Heart,[2]; [7],131 ± 4 mg
same,Kidneys L,[2]; [7],156 ± 6 mg
same,Kidneys R,[2]; [7],162 ± 6 mg
same,Lean body weight,[2]; [7],23.59 g
same,Liver,[2]; [7],1141 ± 47 mg
same,Lungs,[2]; [7],181 ± 5 mg
same,Muscle:fat ratio,[2]; [7],1.28
same,Peri-renal Fat,[2]; [7],72 ± 7 mg
same,Quadriceps,[2]; [7],318 ± 10 mg
same,Retroperitoneal Fat,[2]; [7],353 ± 30 mg
same,Seminal Vesicle,[2]; [7],233 ± 12 mg
same,Testes L,[2]; [7],85 ± 3 mg
same,Testes R,[2]; [7],87 ± 3 mg
same,Thymus,[2]; [7],53 ± 4 mg
same,Total Central Fat,[2]; [7],669 ± 46 mg
same,Triceps,[2]; [7],215 ± 8 mg
same,body composition of adult offspring,"[2]; compound 2 exposure in utero, 20 weeks",no effect
same,growth trajectory of male and female offspring,"[2]; compound 2 to dams, with or without concurrent LPS exposure, up to 20 weeks",not affected
same,LPS-induced death in the first week of life,[3]; [8],completely reversed
same,LPS-induced perinatal loss (number of viable pups at birth),[3]; [8],completely reversed
same,LPS-induced prematurity (gestation length),[3]; [8],completely reversed
same,perinatal outcomes,"[3]; compound 2 alone, in the absence of LPS",did not alter perinatal outcomes
same,pup weight at 12-24 h after birth,[3]; compound 2 with or without LPS treatment,no significant effect
